What was measured:
Test in all cases: KINOMEscan competition binding
Conditions in all cases: compound 10.0 µM
STK38L (human) = STK38L (human) (UniProt Q9Y2H1)
TLK1 (human) = TLK1 (human) (UniProt Q9UKI8)
HIPK4 (human) = HIPK4 (human) (UniProt Q8NE63)
MAP2K3 (human) = MAP2K3 (human) (UniProt P46734)
MAP2K1 (human) = MAP2K1 (human) (UniProt Q02750)
CSNK1G1 (human) = CSNK1G1 (human) (UniProt Q9HCP0)
PLK3 (human) = PLK3 (human) (UniProt Q9H4B4)
DYRK1A (human) = DYRK1A (human) (UniProt Q13627)
STK24 (human) = STK24 (human) (UniProt Q9Y6E0)
RIPK2 (human) = RIPK2 (human) (UniProt O43353)
CAMK4 (human) = CAMK4 (human) (UniProt Q16566)
CDK14 (human) = CDK14 (human) (UniProt O94921)
PKMYT1 (human) = PKMYT1 (human) (UniProt Q99640)
AURKC (human) = AURKC (human) (UniProt Q9UQB9)
Sequence of AURKC (human) (Q9UQB9 whole entry, looked up): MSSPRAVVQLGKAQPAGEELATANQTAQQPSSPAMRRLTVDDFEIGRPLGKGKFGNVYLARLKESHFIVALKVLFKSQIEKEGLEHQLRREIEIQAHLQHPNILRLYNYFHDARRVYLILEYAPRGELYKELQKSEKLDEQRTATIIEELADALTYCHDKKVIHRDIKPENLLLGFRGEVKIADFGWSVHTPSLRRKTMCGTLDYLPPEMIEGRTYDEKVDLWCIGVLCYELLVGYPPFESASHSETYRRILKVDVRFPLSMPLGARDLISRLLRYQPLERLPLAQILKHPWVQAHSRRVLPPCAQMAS

[1] = system: RET (human), P07949 [M918T]
TTK (human) = TTK (human) (UniProt P33981)
CAMK2B (human) = CAMK2B (human) (UniProt Q13554)
Sequence of CAMK2B (human) (Q13554 whole entry, looked up): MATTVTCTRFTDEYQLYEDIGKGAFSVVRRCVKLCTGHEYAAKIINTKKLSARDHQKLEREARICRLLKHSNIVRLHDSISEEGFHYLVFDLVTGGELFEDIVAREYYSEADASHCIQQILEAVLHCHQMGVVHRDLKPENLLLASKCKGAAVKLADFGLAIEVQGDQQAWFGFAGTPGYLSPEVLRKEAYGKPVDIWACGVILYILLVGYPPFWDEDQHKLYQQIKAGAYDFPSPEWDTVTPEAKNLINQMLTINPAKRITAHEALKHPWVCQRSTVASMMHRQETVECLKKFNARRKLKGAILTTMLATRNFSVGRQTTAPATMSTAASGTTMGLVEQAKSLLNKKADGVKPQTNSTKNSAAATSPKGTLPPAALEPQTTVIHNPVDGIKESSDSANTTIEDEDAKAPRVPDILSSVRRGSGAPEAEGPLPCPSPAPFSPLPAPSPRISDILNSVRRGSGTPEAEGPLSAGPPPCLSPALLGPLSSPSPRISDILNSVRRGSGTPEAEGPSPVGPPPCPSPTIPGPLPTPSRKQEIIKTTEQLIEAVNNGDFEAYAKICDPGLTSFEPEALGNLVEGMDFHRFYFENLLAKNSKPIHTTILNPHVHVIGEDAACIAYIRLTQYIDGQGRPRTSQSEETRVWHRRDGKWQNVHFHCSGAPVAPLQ

[2] = molecular target: JAK2 JH1 catalytic (human) (UniProt O60674)
DAPK1 (human) = DAPK1 (human) (UniProt P53355)
TGFBR1 (human) = TGFBR1 (human) (UniProt P36897)
PHKG1 (human) = PHKG1 (human) (UniProt Q16816)
AURKA (human) = AURKA (human) (UniProt O14965)
Sequence of AURKA (human) (O14965 whole entry, looked up): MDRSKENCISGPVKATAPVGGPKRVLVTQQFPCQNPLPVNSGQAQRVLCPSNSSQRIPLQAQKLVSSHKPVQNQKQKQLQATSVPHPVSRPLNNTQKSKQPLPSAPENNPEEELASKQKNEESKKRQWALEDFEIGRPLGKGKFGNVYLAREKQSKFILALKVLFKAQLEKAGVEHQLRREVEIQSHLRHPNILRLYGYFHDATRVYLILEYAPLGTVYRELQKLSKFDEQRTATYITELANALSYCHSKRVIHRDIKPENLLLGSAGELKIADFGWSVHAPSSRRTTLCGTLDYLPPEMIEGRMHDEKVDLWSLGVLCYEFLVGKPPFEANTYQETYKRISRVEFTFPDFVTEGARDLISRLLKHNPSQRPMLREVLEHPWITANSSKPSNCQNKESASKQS

MAP2K7 (human) = MAP2K7 (human) (UniProt O14733)
MST4 (human) = MST4 (human) (UniProt Q9P289)
NEK3 (human) = NEK3 (human) (UniProt P51956)
PRKD1 (human) = PRKD1 (human) (UniProt Q15139)
Sequence of PRKD1 (human) (Q15139 whole entry, looked up): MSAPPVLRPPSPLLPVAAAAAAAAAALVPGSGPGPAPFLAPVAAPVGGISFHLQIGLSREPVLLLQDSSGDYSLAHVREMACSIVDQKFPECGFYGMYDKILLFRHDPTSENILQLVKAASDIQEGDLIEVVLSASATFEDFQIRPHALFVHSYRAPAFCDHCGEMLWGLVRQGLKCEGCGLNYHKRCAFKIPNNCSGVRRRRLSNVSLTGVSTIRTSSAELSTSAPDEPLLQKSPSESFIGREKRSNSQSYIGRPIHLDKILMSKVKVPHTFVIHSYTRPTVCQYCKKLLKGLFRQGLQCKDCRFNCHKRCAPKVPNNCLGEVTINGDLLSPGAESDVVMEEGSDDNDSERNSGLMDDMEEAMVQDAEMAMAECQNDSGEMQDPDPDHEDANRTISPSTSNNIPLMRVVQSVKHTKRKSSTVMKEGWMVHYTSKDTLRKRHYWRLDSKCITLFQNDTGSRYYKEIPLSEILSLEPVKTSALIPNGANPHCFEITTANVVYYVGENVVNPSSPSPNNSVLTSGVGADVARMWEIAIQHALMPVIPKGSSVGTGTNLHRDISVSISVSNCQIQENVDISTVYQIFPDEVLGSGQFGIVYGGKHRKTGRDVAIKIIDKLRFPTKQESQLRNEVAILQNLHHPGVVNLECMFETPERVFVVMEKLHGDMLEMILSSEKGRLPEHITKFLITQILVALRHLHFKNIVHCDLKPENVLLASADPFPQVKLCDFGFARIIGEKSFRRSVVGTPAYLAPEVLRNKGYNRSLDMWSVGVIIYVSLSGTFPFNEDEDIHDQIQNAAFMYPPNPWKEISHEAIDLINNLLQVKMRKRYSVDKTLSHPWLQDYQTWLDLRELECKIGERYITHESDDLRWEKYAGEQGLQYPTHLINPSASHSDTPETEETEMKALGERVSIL

ICK (human) = ICK (human) (UniProt Q9UPZ9)
AXL (human) = AXL (human) (UniProt P30530)
Sequence of AXL (human) (P30530 whole entry, looked up): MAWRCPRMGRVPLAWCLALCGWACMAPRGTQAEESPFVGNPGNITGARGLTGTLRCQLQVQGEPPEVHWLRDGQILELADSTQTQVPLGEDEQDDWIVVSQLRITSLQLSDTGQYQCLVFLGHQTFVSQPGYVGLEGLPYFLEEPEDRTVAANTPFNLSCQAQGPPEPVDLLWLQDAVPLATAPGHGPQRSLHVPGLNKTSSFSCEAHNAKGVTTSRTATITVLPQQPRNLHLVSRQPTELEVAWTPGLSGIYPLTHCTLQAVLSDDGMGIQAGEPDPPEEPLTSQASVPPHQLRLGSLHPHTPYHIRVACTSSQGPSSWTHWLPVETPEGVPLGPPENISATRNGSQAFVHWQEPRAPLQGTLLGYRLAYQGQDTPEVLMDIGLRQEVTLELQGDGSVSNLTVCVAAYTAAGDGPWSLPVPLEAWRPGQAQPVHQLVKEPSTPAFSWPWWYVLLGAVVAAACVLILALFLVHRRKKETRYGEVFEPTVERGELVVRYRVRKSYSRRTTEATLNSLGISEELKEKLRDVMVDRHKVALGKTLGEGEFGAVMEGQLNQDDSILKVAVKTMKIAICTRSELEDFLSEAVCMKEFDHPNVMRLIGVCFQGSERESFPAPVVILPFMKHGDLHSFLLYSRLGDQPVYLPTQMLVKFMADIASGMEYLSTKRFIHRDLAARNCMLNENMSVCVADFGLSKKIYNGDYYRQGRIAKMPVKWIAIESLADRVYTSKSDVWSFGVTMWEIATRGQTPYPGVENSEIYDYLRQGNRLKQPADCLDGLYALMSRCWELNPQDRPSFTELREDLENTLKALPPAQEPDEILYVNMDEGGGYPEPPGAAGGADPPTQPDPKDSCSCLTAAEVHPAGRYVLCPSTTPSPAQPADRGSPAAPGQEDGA

CDK5 (human) = CDK5 (human) (UniProt Q00535)
Sequence of CDK5 (human) (Q00535 whole entry, looked up): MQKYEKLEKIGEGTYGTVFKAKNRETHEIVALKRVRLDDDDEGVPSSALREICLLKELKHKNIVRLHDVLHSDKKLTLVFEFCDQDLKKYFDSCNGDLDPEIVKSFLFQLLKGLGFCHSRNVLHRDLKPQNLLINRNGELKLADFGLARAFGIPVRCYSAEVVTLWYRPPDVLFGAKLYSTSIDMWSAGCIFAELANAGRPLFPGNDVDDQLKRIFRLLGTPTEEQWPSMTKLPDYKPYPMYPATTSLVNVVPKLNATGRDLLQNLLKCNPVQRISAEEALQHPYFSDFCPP

GAK (human) = GAK (human) (UniProt O14976)
OXSR1 (human) = OXSR1 (human) (UniProt O95747)
MAP2K4 (human) = MAP2K4 (human) (UniProt P45985)
Sequence of MAP2K4 (human) (P45985 whole entry, looked up): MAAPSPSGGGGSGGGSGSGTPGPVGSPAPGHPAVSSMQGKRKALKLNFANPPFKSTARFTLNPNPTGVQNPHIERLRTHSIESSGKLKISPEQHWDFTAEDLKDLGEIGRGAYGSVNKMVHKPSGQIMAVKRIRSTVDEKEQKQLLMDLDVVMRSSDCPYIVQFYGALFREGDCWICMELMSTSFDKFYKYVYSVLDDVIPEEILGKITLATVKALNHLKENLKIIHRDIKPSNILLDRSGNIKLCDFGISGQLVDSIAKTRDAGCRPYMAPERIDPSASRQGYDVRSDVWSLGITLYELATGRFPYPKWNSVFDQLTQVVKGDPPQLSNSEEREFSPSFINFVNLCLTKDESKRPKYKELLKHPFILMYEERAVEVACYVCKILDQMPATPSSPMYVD

MAPKAPK5 (human) = MAPKAPK5 (human) (UniProt Q8IW41)
STK36 (human) = STK36 (human) (UniProt Q9NRP7)
STK16 (human) = STK16 (human) (UniProt O75716)
NEK9 (human) = NEK9 (human) (UniProt Q8TD19)
MAP3K6 (human) = MAP3K6 (human) (UniProt O95382)
MAP3K11 (human) = MAP3K11 (human) (UniProt Q16584)
STK3 (human) = STK3 (human) (UniProt Q13188)
[3] = system: KIT (human), P10721 [V559D/V654A]

Sequence of PLK3 (human) (Q9H4B4 whole entry, looked up): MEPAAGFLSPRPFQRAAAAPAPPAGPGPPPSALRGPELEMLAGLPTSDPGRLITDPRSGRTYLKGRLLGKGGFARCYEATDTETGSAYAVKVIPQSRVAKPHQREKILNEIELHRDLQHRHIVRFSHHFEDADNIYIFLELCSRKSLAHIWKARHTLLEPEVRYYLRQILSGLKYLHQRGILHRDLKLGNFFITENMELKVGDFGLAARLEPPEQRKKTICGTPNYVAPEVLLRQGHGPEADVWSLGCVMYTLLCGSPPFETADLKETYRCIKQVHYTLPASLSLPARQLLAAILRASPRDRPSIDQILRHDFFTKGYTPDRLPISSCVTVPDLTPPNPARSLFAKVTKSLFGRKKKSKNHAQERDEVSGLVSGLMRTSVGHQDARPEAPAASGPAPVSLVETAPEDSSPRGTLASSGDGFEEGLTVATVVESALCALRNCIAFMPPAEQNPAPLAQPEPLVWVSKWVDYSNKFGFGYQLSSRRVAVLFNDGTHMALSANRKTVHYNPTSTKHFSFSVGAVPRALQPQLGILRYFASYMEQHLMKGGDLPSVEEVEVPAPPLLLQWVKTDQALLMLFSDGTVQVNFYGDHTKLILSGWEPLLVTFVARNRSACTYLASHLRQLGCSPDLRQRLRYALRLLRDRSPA
Sequence of MAP2K1 (human) (Q02750 whole entry, looked up): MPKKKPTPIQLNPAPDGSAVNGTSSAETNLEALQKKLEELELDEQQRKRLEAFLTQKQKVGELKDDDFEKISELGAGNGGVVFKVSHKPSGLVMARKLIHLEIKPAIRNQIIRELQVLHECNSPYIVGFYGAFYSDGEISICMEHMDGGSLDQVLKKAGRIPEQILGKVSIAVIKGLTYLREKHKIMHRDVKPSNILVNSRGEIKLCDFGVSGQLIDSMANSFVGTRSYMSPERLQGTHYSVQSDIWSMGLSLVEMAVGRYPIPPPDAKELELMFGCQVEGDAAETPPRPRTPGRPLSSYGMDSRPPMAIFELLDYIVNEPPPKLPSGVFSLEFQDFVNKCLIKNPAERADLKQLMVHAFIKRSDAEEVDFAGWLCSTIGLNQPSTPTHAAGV

| SMILES | kinase still bound, per cent of control (STK38L (human)) [%] | kinase still bound, per cent of control (TLK1 (human)) [%] | kinase still bound, per cent of control (HIPK4 (human)) [%] | kinase still bound, per cent of control (MAP2K3 (human)) [%] | kinase still bound, per cent of control (MAP2K1 (human)) [%] | kinase still bound, per cent of control (CSNK1G1 (human)) [%] | kinase still bound, per cent of control (PLK3 (human)) [%] | kinase still bound, per cent of control (STK24 (human)) [%] | kinase still bound, per cent of control (RIPK2 (human)) [%] | kinase still bound, per cent of control (CAMK4 (human)) [%] | kinase still bound, per cent of control (CDK14 (human)) [%] | kinase still bound, per cent of control (PKMYT1 (human)) [%] | kinase still bound, per cent of control (AURKC (human)) [%] | kinase still bound, per cent of control [1] [%] | kinase still bound, per cent of control (TTK (human)) [%] | kinase still bound, per cent of control (CAMK2B (human)) [%] | kinase still bound, per cent of control [2] [%] | kinase still bound, per cent of control (DAPK1 (human)) [%] | kinase still bound, per cent of control (TGFBR1 (human)) [%] | kinase still bound, per cent of control (PHKG1 (human)) [%] | other results |
| --- | --- | --- | --- | --- | --- | --- | --- | --- | --- | --- | --- | --- | --- | --- | --- | --- | --- | --- | --- | --- | --- |
| NC(=O)Nc1cc(-c2cccc(F)c2)sc1C(=O)N[C@@H]1CCCNC1 | 0 | 0.9 | 38 | 10 | 0 | 7.6 | 39 | 0.3 | 40 | 0.15 | 100 | 33 | 0.7 | 0 | 12 | 19 | 0 | 0.1 | 47 | 0.1 | kinase still bound, per cent of control (DYRK1A (human)): 0%; kinase still bound, per cent of control (AURKA (human)): 22%; kinase still bound, per cent of control (MAP2K7 (human)): 80%; kinase still bound, per cent of control (MST4 (human)): 0.15%; kinase still bound, per cent of control (NEK3 (human)): 43%; kinase still bound, per cent of control (PRKD1 (human)): 0.3%; kinase still bound, per cent of control (ICK (human)): 100%; kinase still bound, per cent of control (AXL (human)): 0%; kinase still bound, per cent of control (CDK5 (human)): 100%; kinase still bound, per cent of control (GAK (human)): 2.9%; kinase still bound, per cent of control (OXSR1 (human)): 0.45%; kinase still bound, per cent of control (MAP2K4 (human)): 2.2%; kinase still bound, per cent of control (MAPKAPK5 (human)): 0.05%; kinase still bound, per cent of control (STK36 (human)): 74%; kinase still bound, per cent of control (STK16 (human)): 21%; kinase still bound, per cent of control (NEK9 (human)): 80%; kinase still bound, per cent of control (MAP3K6 (human)): 25% |
| O=C(Nc1cccc(Nc2ncc(Br)c(NCCc3cnc[nH]3)n2)c1)N1CCCC1 | 69 | 37 | 2 | 23 | 0.15 | 54 | 20 | 2 | 58 | 100 | 44 | 100 | 0 | 0.05 | 5 | 35 | 0 | 1.2 | 77 | 2.3 | kinase still bound, per cent of control (DYRK1A (human)): 12%; kinase still bound, per cent of control (MAP3K11 (human)): 0.75%; kinase still bound, per cent of control (AURKA (human)): 1.6%; kinase still bound, per cent of control (STK3 (human)): 0.45%; kinase still bound, per cent of control (MAP2K7 (human)): 60%; kinase still bound, per cent of control (MST4 (human)): 0.4%; kinase still bound, per cent of control (NEK3 (human)): 6.8%; kinase still bound, per cent of control (PRKD1 (human)): 0.65%; kinase still bound, per cent of control (ICK (human)): 10%; kinase still bound, per cent of control (AXL (human)): 1.2%; kinase still bound, per cent of control (CDK5 (human)): 24%; kinase still bound, per cent of control (GAK (human)): 1.4%; kinase still bound, per cent of control (OXSR1 (human)): 25%; kinase still bound, per cent of control [3]: 15%; kinase still bound, per cent of control (MAP2K4 (human)): 0.3%; kinase still bound, per cent of control (MAPKAPK5 (human)): 28%; kinase still bound, per cent of control (STK36 (human)): 18%; kinase still bound, per cent of control (STK16 (human)): 0.55%; kinase still bound, per cent of control (NEK9 (human)): 4.6%; kinase still bound, per cent of control (MAP3K6 (human)): 49% |
| O=c1cc(N2CCOCC2)oc2c(-c3cccc4c3sc3ccccc34)cccc12 | 95 | 71 | 74 | 91 | 76 | 92 | 86 | 86 | 91 | 100 | 100 | 92 | 100 | 98 | 100 | 80 | 67 | 72 | 100 | 100 | kinase still bound, per cent of control (DYRK1A (human)): 61%; kinase still bound, per cent of control (MAP3K11 (human)): 97%; kinase still bound, per cent of control (AURKA (human)): 98%; kinase still bound, per cent of control (STK3 (human)): 85%; kinase still bound, per cent of control (MAP2K7 (human)): 100%; kinase still bound, per cent of control (MST4 (human)): 95%; kinase still bound, per cent of control (NEK3 (human)): 100%; kinase still bound, per cent of control (PRKD1 (human)): 98%; kinase still bound, per cent of control (ICK (human)): 100%; kinase still bound, per cent of control (AXL (human)): 100%; kinase still bound, per cent of control (CDK5 (human)): 100%; kinase still bound, per cent of control (GAK (human)): 89%; kinase still bound, per cent of control (OXSR1 (human)): 100%; kinase still bound, per cent of control [3]: 100%; kinase still bound, per cent of control (MAP2K4 (human)): 100%; kinase still bound, per cent of control (MAPKAPK5 (human)): 100%; kinase still bound, per cent of control (STK36 (human)): 100%; kinase still bound, per cent of control (STK16 (human)): 98%; kinase still bound, per cent of control (NEK9 (human)): 93%; kinase still bound, per cent of control (MAP3K6 (human)): 100% |
| COCC(=O)NC/C=C/c1ccc2ncnc(Nc3ccc(Oc4ccc(C)nc4)c(C)c3)c2c1 | 100 | 79 | 95 | 100 | 9.4 | 100 | 99 | 90 | 26 | 86 | 100 | 100 | 67 | 77 | 80 | 88 | 100 | 76 | 100 | 100 | kinase still bound, per cent of control (MAP3K11 (human)): 92%; kinase still bound, per cent of control (AURKA (human)): 100%; kinase still bound, per cent of control (STK3 (human)): 82%; kinase still bound, per cent of control (MAP2K7 (human)): 100%; kinase still bound, per cent of control (MST4 (human)): 90%; kinase still bound, per cent of control (NEK3 (human)): 95%; kinase still bound, per cent of control (PRKD1 (human)): 85%; kinase still bound, per cent of control (ICK (human)): 100%; kinase still bound, per cent of control (AXL (human)): 68%; kinase still bound, per cent of control (CDK5 (human)): 100%; kinase still bound, per cent of control (GAK (human)): 84%; kinase still bound, per cent of control (OXSR1 (human)): 100%; kinase still bound, per cent of control [3]: 88%; kinase still bound, per cent of control (MAP2K4 (human)): 95%; kinase still bound, per cent of control (MAPKAPK5 (human)): 100%; kinase still bound, per cent of control (STK36 (human)): 100%; kinase still bound, per cent of control (NEK9 (human)): 82%; kinase still bound, per cent of control (MAP3K6 (human)): 100% |
